Assay type in all cases: biochemical
Experiment [1] addresses T1, 382 unique human kinases (Homo sapiens, UniProt Q9BQI3).
T1 construct: purchased Reaction Biology (HotSpot contract assay)
In words: biochemical. As to conditions: EIF2AK1; read-out: Control Compound IC50*.

Experiment [2] addresses T2, 382 unique human kinases (Homo sapiens, UniProt Q15120).
T2 construct: purchased Reaction Biology (HotSpot contract assay)
The experiment in a line: biochemical. As to conditions: PDK3/PDHK3; [ATP] 30 µM; read-out: Control Compound IC50*.

For experiment [3], the target named is T3, 382 unique human kinases (Homo sapiens, UniProt P68400).
T3 construct: purchased Reaction Biology (HotSpot contract assay)
In words: biochemical. Conditions: CK2a; read-out: Control Compound IC50*.

Experiment [4] addresses T4, 382 unique human kinases (Homo sapiens, UniProt Q15118).
T4 construct: purchased Reaction Biology (HotSpot contract assay)
The experiment in a line: biochemical. As to conditions: PDK1/PDHK1; [ATP] 50 µM; read-out: Control Compound IC50*.

In experiment [5] the target is T5, 382 unique human kinases (Homo sapiens, UniProt P10398).
T5 construct: purchased Reaction Biology (HotSpot contract assay)
T5 sequence (P10398 1-606): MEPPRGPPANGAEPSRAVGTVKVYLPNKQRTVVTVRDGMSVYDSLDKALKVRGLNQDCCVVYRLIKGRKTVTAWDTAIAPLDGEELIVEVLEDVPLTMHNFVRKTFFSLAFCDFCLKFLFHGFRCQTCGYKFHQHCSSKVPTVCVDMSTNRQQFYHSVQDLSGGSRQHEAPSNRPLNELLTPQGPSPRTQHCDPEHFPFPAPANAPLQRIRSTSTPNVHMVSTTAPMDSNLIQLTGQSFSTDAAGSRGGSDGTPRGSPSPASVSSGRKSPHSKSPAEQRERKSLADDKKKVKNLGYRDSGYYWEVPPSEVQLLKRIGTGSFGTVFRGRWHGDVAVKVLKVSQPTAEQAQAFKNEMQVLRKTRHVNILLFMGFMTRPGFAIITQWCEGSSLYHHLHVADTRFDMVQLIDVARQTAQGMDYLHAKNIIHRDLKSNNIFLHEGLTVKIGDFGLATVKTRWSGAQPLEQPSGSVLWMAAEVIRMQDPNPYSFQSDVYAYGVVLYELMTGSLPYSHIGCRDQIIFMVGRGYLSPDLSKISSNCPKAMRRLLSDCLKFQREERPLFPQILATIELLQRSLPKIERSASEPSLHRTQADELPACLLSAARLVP
The experiment in a line: biochemical. As to conditions: ARAF; read-out: Control Compound IC50*.

Experiment [6] addresses T6, 382 unique human kinases (Homo sapiens, UniProt Q9NYL2).
T6 construct: purchased Reaction Biology (HotSpot contract assay)
In words: biochemical. Conditions: ZAK/MLTK; [ATP] 50 µM; read-out: Control Compound IC50*.

The target in experiment [7] is T7, 382 unique human kinases (Homo sapiens, UniProt Q16654).
T7 construct: purchased Reaction Biology (HotSpot contract assay)
T7 sequence (Q16654 whole entry): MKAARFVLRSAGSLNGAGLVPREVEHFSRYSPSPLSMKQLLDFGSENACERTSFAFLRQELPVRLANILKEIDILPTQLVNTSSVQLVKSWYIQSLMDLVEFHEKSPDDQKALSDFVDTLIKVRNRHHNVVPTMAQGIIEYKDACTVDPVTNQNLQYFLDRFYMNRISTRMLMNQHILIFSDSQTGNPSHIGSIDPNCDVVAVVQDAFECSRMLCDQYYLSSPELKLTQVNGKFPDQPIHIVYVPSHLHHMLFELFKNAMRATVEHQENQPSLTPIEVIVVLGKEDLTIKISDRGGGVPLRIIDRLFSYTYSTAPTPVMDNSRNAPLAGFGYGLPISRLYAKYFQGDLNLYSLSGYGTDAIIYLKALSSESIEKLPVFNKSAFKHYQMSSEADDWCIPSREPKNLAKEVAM
The experiment in a line: biochemical. As to conditions: PDK4/PDKH4; [ATP] 30 µM; read-out: Control Compound IC50*.

Experiment [8] concerns the target T8, 382 unique human kinases (Homo sapiens, UniProt Q9NR20).
T8 construct: purchased Reaction Biology (HotSpot contract assay)
T8 sequence (Q9NR20 1-520): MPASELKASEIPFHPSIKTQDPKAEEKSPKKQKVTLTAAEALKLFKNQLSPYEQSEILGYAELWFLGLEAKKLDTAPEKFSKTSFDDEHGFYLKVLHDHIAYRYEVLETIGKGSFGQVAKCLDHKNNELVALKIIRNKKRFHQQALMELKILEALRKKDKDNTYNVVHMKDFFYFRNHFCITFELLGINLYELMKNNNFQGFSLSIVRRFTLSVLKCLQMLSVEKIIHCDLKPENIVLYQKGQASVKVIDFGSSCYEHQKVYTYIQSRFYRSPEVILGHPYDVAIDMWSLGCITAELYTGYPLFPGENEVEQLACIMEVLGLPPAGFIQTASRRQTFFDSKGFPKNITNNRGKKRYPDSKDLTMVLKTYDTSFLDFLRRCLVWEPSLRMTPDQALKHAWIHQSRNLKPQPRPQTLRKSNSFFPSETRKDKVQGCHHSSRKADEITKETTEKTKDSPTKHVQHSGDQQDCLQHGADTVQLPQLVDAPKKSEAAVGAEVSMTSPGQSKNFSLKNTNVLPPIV
In words: biochemical. Conditions: DYRK4; read-out: Control Compound IC50*.

Experiment [9] has as its system 382 unique human kinases. The experiment in a line: biochemical. As to conditions: read-out: Control Compound IC50*.
Experiment [10] addresses T9, 382 unique human kinases (Homo sapiens, UniProt Q9Y572).
T9 construct: purchased Reaction Biology (HotSpot contract assay)
In words: biochemical. As to conditions: RIPK3; [ATP] 2.5 µM; read-out: Control Compound IC50*.

Experiment [11] has as its target T10, 382 unique human kinases (Homo sapiens, UniProt Q15119).
T10 construct: purchased Reaction Biology (HotSpot contract assay)
The experiment in a line: biochemical. As to conditions: PDK2/PDHK2; [ATP] 15 µM; read-out: Control Compound IC50*.

In another experiment the target is T11, PDK4/PDKH4 (Homo sapiens, UniProt Q16654).
T11 construct: purchased Reaction Biology (HotSpot contract assay)
In words: HotSpot in vitro kinase radiometric assay. As to conditions: PDK4/PDKH4; ATP 30 uM; read-out: IC50 (M) Control Cmpd. As to the method:
(§1) Accordingly, we selected five additional representative HSP90 inhibitors, at least one from each chemical class, including both synthetic inhibitors and natural products. […]
(§2) This radioisotope binding assay was designed to directly detect the true product without the use of modified substrates, coupling enzymes, or detection antibodies thus enabling to directly measure inhibition of catalytic activity. Test or control compounds were incubated with kinase, substrate, cofactors, and radioisotope-labeled ATP (32P-ɣ-ATP or 33P-ɣ-ATP). The reaction mixtures were then spotted onto filter papers, which bind the radioisotope-labeled catalytic product.

The target in a further experiment is T12, PDK2/PDHK2 (Homo sapiens, UniProt Q15119).
T12 construct: purchased Reaction Biology (HotSpot contract assay)
The experiment in a line: HotSpot in vitro kinase radiometric assay. Conditions: PDK2/PDHK2; ATP 15 uM; read-out: IC50 (M) Control Cmpd. Here is the method:
as §1, §2

Experiment [12] has as its target T13, 382 unique human kinases (Homo sapiens, UniProt Q8TDX7).
T13 construct: purchased Reaction Biology (HotSpot contract assay)
The experiment in a line: biochemical. Conditions: NEK7; read-out: Control Compound IC50*.

Experiment [13] deals with T14, 382 unique human kinases (Homo sapiens, UniProt Q9HC98).
T14 construct: purchased Reaction Biology (HotSpot contract assay)
T14 sequence (Q9HC98 whole entry): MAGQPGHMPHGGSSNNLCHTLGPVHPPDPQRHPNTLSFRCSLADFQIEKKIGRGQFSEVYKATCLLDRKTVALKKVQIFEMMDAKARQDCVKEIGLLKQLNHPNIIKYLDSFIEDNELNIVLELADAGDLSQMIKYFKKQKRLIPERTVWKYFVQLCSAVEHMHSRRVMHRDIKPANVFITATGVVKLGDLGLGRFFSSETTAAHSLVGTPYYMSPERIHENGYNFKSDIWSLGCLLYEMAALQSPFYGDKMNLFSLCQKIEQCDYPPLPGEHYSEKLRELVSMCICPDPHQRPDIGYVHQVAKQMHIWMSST
In words: biochemical. Conditions: NEK6; read-out: Control Compound IC50*.

Experiment [14] concerns the target T15, 382 unique human kinases (Homo sapiens, UniProt Q6IQ55).
T15 construct: purchased Reaction Biology (HotSpot contract assay)
In words: biochemical. As to conditions: TTBK2; read-out: Control Compound IC50*.

Experiment [15] concerns the target T16, 382 unique human kinases (Homo sapiens, UniProt P41279).
T16 construct: purchased Reaction Biology (HotSpot contract assay)
In words: biochemical. Conditions: COT1/MAP3K8; read-out: Control Compound IC50*.

Experiment [16] addresses T17, 382 unique human kinases (Homo sapiens, UniProt Q86Y07).
T17 construct: purchased Reaction Biology (HotSpot contract assay)
In words: biochemical. As to conditions: kinase VRK2; read-out: Control Compound IC50*.

Experiment [17] addresses T18, 382 unique human kinases (Homo sapiens, UniProt Q92918).
T18 construct: purchased Reaction Biology (HotSpot contract assay)
In words: biochemical. Conditions: kinase HPK1/MAP4K1; read-out: Control Compound IC50*.

Experiment [18] has as its target T19, 382 unique human kinases (Homo sapiens, UniProt Q99986).
T19 construct: purchased Reaction Biology (HotSpot contract assay)
T19 sequence (Q99986 1-396): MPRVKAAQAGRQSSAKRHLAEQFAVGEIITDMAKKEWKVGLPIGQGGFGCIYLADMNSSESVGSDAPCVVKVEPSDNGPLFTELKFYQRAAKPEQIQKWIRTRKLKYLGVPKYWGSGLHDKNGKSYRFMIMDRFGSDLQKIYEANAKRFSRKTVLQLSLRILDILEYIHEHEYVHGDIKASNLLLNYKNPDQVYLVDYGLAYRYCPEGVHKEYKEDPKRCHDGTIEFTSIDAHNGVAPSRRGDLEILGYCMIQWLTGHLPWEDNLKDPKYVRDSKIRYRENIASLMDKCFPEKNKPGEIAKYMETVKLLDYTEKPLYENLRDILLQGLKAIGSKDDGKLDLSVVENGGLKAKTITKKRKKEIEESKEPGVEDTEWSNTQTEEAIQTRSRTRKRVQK
In words: biochemical. Conditions: VRK1; read-out: Control Compound IC50*.

The target of experiment [19] is T20, 382 unique human kinases (Homo sapiens, UniProt Q86Z02).
T20 construct: purchased Reaction Biology (HotSpot contract assay)
The experiment in a line: biochemical. As to conditions: HIPK1; read-out: Control Compound IC50*.

Like-named read-outs stand apart in the source and are kept apart here.

T9 sequence (Q9Y572 whole entry): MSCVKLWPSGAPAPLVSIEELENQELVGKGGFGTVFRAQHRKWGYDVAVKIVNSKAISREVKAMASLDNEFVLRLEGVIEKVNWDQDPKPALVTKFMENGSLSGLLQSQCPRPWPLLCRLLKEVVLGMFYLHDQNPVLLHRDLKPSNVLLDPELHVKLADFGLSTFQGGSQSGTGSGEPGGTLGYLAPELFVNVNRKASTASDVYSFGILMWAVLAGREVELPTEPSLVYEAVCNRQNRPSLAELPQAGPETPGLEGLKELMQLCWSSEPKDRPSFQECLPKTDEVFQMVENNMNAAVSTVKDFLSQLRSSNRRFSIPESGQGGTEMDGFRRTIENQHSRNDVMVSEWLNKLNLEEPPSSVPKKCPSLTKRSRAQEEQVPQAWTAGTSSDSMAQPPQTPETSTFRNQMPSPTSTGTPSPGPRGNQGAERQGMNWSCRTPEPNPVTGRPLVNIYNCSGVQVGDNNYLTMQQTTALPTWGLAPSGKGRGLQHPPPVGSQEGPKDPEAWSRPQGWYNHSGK
T4 sequence (Q15118 29-436): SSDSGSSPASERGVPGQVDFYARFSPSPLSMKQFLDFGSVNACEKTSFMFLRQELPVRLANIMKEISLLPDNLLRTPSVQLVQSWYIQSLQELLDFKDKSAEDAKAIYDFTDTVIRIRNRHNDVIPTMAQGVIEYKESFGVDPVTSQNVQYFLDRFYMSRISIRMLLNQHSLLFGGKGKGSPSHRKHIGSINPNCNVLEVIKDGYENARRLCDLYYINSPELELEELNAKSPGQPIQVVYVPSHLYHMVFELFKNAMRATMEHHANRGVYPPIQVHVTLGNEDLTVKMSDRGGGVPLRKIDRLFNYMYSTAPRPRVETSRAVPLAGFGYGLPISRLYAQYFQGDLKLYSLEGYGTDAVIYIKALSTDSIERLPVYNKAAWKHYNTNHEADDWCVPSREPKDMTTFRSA
T17 sequence (Q86Y07 whole entry): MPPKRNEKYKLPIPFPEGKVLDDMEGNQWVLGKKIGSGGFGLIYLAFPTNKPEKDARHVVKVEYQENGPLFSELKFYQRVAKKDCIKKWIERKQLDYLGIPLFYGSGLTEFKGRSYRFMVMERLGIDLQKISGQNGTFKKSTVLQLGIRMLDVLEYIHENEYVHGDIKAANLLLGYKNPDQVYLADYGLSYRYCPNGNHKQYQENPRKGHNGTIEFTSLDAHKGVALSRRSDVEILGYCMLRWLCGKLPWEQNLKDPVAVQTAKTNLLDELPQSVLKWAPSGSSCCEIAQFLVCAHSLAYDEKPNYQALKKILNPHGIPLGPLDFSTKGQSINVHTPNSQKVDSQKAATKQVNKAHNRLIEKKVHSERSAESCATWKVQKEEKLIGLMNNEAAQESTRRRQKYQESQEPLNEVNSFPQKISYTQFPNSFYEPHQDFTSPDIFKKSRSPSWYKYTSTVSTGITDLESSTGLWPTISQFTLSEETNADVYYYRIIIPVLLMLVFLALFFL
T15 sequence (Q6IQ55 whole entry): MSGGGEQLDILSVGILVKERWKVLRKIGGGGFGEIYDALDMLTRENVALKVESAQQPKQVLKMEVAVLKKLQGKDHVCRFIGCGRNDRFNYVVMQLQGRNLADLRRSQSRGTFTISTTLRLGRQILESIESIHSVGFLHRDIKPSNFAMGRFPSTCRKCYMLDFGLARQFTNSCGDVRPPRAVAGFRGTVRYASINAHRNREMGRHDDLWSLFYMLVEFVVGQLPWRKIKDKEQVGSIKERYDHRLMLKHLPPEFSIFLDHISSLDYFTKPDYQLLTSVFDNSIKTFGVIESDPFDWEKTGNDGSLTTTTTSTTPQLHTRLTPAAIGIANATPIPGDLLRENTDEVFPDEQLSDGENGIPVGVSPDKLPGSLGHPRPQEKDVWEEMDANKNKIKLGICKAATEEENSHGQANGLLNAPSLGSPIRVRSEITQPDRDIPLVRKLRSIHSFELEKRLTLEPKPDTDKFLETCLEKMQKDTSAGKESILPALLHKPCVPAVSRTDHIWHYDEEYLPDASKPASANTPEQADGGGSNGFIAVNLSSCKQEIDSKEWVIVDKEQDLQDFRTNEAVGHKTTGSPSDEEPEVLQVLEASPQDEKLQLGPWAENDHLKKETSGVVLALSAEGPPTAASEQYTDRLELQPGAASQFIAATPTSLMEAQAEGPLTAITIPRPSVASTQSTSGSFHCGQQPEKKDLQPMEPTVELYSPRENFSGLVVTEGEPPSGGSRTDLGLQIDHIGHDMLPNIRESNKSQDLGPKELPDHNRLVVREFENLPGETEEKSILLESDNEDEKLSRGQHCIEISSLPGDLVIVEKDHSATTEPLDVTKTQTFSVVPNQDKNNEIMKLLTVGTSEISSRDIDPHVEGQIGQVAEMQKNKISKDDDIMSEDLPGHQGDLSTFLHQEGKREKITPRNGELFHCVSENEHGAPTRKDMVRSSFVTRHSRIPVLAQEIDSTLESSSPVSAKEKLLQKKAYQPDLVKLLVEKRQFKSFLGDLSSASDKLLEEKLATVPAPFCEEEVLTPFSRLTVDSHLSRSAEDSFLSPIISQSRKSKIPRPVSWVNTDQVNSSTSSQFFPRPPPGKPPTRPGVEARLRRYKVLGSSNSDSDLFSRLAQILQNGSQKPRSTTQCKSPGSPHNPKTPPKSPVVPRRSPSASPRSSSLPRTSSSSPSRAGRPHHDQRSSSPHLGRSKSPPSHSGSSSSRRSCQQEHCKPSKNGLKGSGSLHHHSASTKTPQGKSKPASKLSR
T1 sequence (Q9BQI3 whole entry): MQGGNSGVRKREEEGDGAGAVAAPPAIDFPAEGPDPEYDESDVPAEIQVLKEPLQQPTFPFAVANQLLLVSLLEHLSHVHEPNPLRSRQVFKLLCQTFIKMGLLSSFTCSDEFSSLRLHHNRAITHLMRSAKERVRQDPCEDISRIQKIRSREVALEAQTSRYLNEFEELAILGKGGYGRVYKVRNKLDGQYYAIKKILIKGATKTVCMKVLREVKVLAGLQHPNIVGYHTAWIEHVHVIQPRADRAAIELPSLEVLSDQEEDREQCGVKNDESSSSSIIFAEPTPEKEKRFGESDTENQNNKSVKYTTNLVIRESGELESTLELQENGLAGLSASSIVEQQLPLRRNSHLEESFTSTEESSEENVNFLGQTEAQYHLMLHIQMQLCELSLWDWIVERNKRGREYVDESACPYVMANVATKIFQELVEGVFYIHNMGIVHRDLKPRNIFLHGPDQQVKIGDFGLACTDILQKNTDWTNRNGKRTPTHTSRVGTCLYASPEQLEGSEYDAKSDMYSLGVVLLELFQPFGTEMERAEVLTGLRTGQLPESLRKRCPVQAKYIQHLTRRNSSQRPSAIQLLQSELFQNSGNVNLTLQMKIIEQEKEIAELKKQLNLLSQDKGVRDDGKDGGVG
T13 sequence (Q8TDX7 whole entry): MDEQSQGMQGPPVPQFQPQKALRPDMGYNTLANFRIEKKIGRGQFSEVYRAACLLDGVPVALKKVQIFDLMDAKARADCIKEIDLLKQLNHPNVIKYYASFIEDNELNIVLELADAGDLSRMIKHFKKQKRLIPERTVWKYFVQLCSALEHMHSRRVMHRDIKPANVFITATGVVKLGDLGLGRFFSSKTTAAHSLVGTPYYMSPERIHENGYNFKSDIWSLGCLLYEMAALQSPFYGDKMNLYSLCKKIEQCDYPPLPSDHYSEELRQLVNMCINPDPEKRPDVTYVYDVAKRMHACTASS
T16 sequence (P41279 whole entry): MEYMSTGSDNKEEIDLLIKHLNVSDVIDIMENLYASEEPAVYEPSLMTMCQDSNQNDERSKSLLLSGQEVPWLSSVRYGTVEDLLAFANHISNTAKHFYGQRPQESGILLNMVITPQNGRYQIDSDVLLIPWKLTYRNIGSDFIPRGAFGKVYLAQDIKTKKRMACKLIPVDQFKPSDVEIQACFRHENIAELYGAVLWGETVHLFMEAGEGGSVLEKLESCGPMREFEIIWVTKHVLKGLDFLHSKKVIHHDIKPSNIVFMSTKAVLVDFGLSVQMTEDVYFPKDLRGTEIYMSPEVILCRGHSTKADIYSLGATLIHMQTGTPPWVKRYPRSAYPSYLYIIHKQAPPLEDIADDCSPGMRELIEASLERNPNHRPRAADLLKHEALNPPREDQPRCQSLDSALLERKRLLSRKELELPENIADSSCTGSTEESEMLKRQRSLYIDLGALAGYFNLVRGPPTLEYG

Take `Cn1cc(-c2ccc3c(c2)CCN3C(=O)Cc2cccc(C(F)(F)F)c2)c2c(N)ncnc21` [GSK-2606414]: the IC50 at 382 unique human kinases [1] came out at 92.1 nM.
Turning to `O=C1Nc2ccc(I)cc2/C1=C/c1cc(Br)c(O)c(Br)c1` [GW5074], the IC50 stood at 12100 nM on 382 unique human kinases [2]; 398 nM on 382 unique human kinases [3]; 32200 nM on 382 unique human kinases [4]; 14 nM on 382 unique human kinases [5]; 2620 nM on 382 unique human kinases [6]; 1720 nM on 382 unique human kinases [7]. In addition, the IC50 amounted to 1880 nM on 382 unique human kinases [8]; […] with 382 unique human kinases [9] (BRAF (R506_K507insVLR)); […] in the experiment with 382 unique human kinases [9] (BRAF (T599_V600insT)); […] in the experiment with 382 unique human kinases [9] (BRAF (d485-489/P490Y)); […] in the experiment with 382 unique human kinases [9] (BRAF-FAM131B (Fex2Bex9)); […] in the experiment on 382 unique human kinases [9] (BRAF-KIAA1549 (Kex15Bex9)). Besides, the IC50 in the experiment on 382 unique human kinases [9] (BRAF-KIAA1549 (Kex16Bex9)) amounted to […]; with 382 unique human kinases [9] (BRAF-SRGAP3 (Sex12Bex9)) it was […]; at 382 unique human kinases [10], 1060 nM; at 382 unique human kinases [11] it was 6610 nM; at PDK4/PDKH4 it was 2.51e-06 M; at PDK2/PDHK2, 6.39e-06 M.
In the case of `O=C1Nc2ccc3ncsc3c2/C1=C/c1cnc[nH]1` [PKR Inhibitor], the IC50 at 382 unique human kinases [12] came out at 12400 nM; on 382 unique human kinases [13], 35500 nM.
For `Oc1ccc(-c2nc(-c3ccncc3)c(-c3ccc(F)cc3)[nH]2)cc1` [SB202190], the half-maximal inhibitory concentration (IC50) at 382 unique human kinases [14] amounted to 9410 nM.
In the case of Ro-31-8220, the half-inhibitory concentration (IC50) at 382 unique human kinases [15] worked out at 7830 nM; at 382 unique human kinases [16], 9050 nM; on 382 unique human kinases [17], 44.3 nM; at 382 unique human kinases [18], 528 nM; on 382 unique human kinases [19], 800 nM.

For orientation: IC50 means the point on the concentration scale where inhibition reaches its midpoint.

For the origin of these results see publication PMC8550792, “Evolution of kinase polypharmacology across HSP90 drug discovery” (Cell Chemical Biology, 2021).
